Reference: article PMC4788259 (PLoS Neglected Tropical Diseases, 2016)

tested on: E. multilocularis metacestodes; assay: PGI assay: phosphoglucose isomerase release from damaged metacestodes; format: cell-based, Echinococcus multilocularis; settings: 10 μM, 5 days, single wells, relative to DB1127 (10 μM)
Experimental: The preparation of E. multilocularis metacestode material (strain H95) from intraperitoneally (i.p.) infected BALB/c mice was performed as described earlier. Metacestode vesicles were used for in vitro drug screening when they reached 2 to 4 mm in diameter.
For screening of the Malaria Box against E. multilocularis metacestodes, the PGI screening assay was applied that measures the release of the enzyme phosphoglucose isomerase (PGI) upon physical impairment of metacestodes. The screening setup was done in 24 well plates as described by Stadelmann et al. For initial screening, each drug was applied at 10 μM to metacestodes in single wells. As a positive control-drug, the dicationic diguanidino compound DB1127 (10 μM) was used and 0.1% DMSO was added as negative control. Metacestodes were cultured in the presence of the compounds for 5 days, after which PGI release was quantified exactly as stated in Stadelmann et al. […] Averages, standard deviations and EC50 values were calculated in Microsoft Excel 2010.

Compound | PGI (% of DB1127 at 10 uM) [%]
CCOc1ccccc1NC(=O)CN1CCN(C(=O)c2ccco2)CC1 [MMV007791] | -28.95
COc1nc(Nc2ccc(C(C)C)cc2)nc(OC)n1 [MMV007808] | -19.50
COc1ccc2c(c1)OC(O)(C(F)(F)C(F)(F)F)CC2=O (centres unmarked) [MMV007839] | 50.23
COc1ccc2nc(C)cc(Nc3ccc(Cl)cc3)c2c1 [MMV007875] | -32.27
CCCCN(CCCC)S(=O)(=O)c1ccc(NC(=O)c2ccco2)cc1 [MMV007881] | -23.46
CCCCOc1ccc(C(=O)Nc2cc(C)on2)cc1 [MMV007906] | -15.33
Cc1ccc(Nc2nc(-c3ccccn3)cs2)cc1 [MMV007907] | -25.32
O=c1nc(C=Cc2ccc(Cl)cc2)oc2ccccc12 [MMV007977] | 41.38
CCOc1ccc(CCNC(=O)c2cccs2)cc1OCC [MMV007978] | -3.44
CN1CCN(c2c3c(c(C#N)c4nc5ccccc5n24)CCC3)CC1 [MMV008127] | -35.30
O=C(O)C1Cc2c([nH]c3ccccc23)C(c2ccc(Cl)cc2Cl)N1 (centres unmarked) [MMV008138] | -14.05
Cc1c(C)n(Cc2ccc(F)cc2)c2ccc(C(=O)NCc3ccco3)cc12 [MMV008149] | -33.19
CN1C=C(c2ccc3ccccc3n2)C(c2c[nH]c3ccccc23)c2ccccc21 (centres unmarked) [MMV008160] | -2.32
COc1cc(OC)cc(N2C(=O)N(Cc3ccc(C(C)(C)C)cc3)c3ccccc3S2(=O)=O)c1 [MMV008173] | -29.78
COc1ccc2nc(C)cc(Nc3cccc(O)c3)c2c1.Cl [MMV008212] | -12.96
CCOC(=O)c1cnc2c(C)cc(C)cc2c1Nc1ccc(OC)c(OC)c1 [MMV008294] | -43.41
CCCc1c(CC)c(=N)c2ccccc2n1C [MMV008416] | -40.39
COc1ccc(C2C(C(=O)Nc3cccc(OC)c3)c3ccccc3C(=O)N2C2CCCCC2)cc1 (centres unmarked) [MMV008455] | -12.94
CCN1CCN(c2c(C(=O)c3ccccc3)cnc3cc(OC)c(OC)cc23)CC1 [MMV008474] | -15.22
CCCn1c(=N)c(C(=O)NC2CCCCC2)cc2c(=O)n3cccc(C)c3nc21 [MMV008829] | -2.96
CCOc1cc2c(cc1OCC)C(c1cc(OC)c(O)cc1Cl)NCC2 (centres unmarked) [MMV008956] | -28.84
O=C(CCc1ccccc1)c1ccccc1OCC(O)CN1CCCCC1 (centres unmarked) [MMV009015] | 4.79
CCN(CC)c1ccc(NC(=O)c2cccs2)cc1 [MMV009060] | -36.82
OC(CNC1CCCCC1)Cn1c2ccccc2c2ccccc21 (centres unmarked) [MMV009063] | 29.02
O=C1c2ccc3c4c(ccc(c24)C(=O)N1CCCCO)C(=O)N(CCCCO)C3=O [MMV009085] | -6.63
Br.CCN(CC)S(=O)(=O)c1ccc(-c2csc(Nc3ccc(C)c(C)c3)n2)cc1 [MMV009108] | 14.04

Compound | PGI (% of DB1127 at 10 uM) [%]
CC1CCN(Cc2c(O)ccc3cc(-c4nc5ccccc5s4)c(=O)oc23)CC1 [MMV009127] | 0.35
Cc1cc(Nc2ccc3ccccc3c2)n2ncnc2n1 [MMV011099] | -50.58
Cc1cc(Nc2ccc(Cl)cc2)n2nc(C(F)(F)F)nc2n1 [MMV011256] | -32.20
Cc1cc(C)cc(Nc2cc(C)nc3nc(C(F)(F)F)nn23)c1 [MMV011259] | -21.18
Cc1ccc(Nc2nc(N)c3ccccc3n2)cc1Cl [MMV011522] | 12.79
COc1ccc(C(=O)Nc2nonc2-c2ccc(OC)c(OC)c2)cc1Cl [MMV011567] | -5.45
CCOC(=O)C1CCN(C(=O)CN2C(=O)c3ccccc3C2c2c[nH]c3ccccc23)CC1 (centres unmarked) [MMV011576] | -33.19
O=C(O)C(=O)O.Oc1ccccc1CN1CCN(C(c2ccccc2)c2ccccc2)CC1 [MMV011795] | -19.79
Oc1ccc2ccccc2c1CNc1nc2ccccc2[nH]1 [MMV011832] | 34.82
COc1cccc(Nc2nc(NCCO)c3ccccc3n2)c1.Cl [MMV011944] | 15.53
Cc1cc(NC(=O)c2ccc(-c3ccccc3)cc2)no1 [MMV018984] | 6.32
COCCNCC(O)Cn1c2ccc(Cl)cc2c2cc(Cl)ccc21 (centres unmarked) [MMV019017] | 20.81
COc1cccc(-c2nn(C)c3sc(C(=O)NCCN4CCN(c5ccccc5F)CC4)cc23)c1 [MMV019064] | -17.87
COc1ccccc1CNC(=O)CCn1c(=O)[nH]c2ccsc2c1=O [MMV019066] | -44.92
CCN1CCN(c2cc(C)c3cc(NC(=O)c4ccc(OC)c(OC)c4)ccc3n2)CC1 [MMV019074] | -7.35
Cc1cccc(Nc2nc(N)c3ccccc3n2)c1.Cl [MMV019110] | -9.63
CCN(Cc1ccccc1)C1CCN(Cc2cc(Br)ccc2O)CC1.O=C(O)C(=O)O [MMV019127] | -5.90
COc1cccc(Nc2nc(N)c3ccccc3n2)c1.Cl [MMV019199] | -26.29
CCOc1cccc(C(=O)Nc2ccc(-c3nc4ccccc4[nH]3)cc2)c1 [MMV019202] | -27.17
O=C(Nc1ccc(-c2nc3cc4ccccc4cc3[nH]2)cc1)c1cccc(Br)c1 [MMV019241] | -30.92
COc1ccc(-n2ccnc2SCC(=O)Nc2cc(C)ccc2C)c(OC)c1 [MMV019258] | -33.26
Cc1sc2ncnc(Sc3nc4ccccc4[nH]3)c2c1C [MMV019266] | -32.46
Cn1c(=O)c2cc(C(=O)NCCCN3CCCCCC3)sc2c2ccccc21 [MMV019313] | -53.66
CCC1(C)CC(CCNCc2ccccc2O)(c2ccc(C)cc2)CCO1 (centres unmarked) [MMV019406] | -21.13
Cl.c1ccc2c(NCCCCCCNc3c4c(nc5ccccc35)CCCC4)c3c(nc2c1)CCCC3 [MMV019555] | -3.16
COc1ccc(N2CCN(C(CNC(=O)C3CCCCC3)c3ccc4c(c3)OCO4)CC2)cc1 (centres unmarked) [MMV019662] | -7.72

Compound | PGI (% of DB1127 at 10 uM) [%]
O=C(Nc1ccc(N2CCN(Cc3ccccc3)CC2)cc1)c1cccs1.O=C(O)C(F)(F)F [MMV019670] | -9.43
COc1ccc(C2NCCc3c2[nH]c2ccccc32)cc1CN1CCN(c2ccc(F)cc2)CC1.Cl (centres unmarked) [MMV019690] | 51.28
O=C(Nc1ccc(N2CCCCC2)c(Cl)c1)c1ccc(Br)o1 [MMV019700] | -40.52
Cc1[nH]c(-c2ccc(F)cc2)cc1C(=O)NC1CCN(Cc2ccccc2)CC1 [MMV019738] | 12.98
Cc1ccc(C)c(Cn2c(N3CCC(C(=O)NCc4cccs4)CC3)nc3ccccc32)c1 [MMV019741] | -17.48
Cc1ccc(Cl)cc1N1CCN(CCCNC(=O)C2CCN(c3nc4ccccc4[nH]3)CC2)CC1 [MMV019746] | -24.98
COc1ccc(C(=O)Nc2ccc3nc(N4CCCCC4)cc(C)c3c2)cc1OC [MMV019758] | -36.67
COc1cccc(C(=O)Nc2ccc(-c3nc4ccccc4[nH]3)cc2)c1 [MMV019762] | -25.80
Cc1cc(C)c2nc(N3CCC(C(=O)NCCCN4CCC(N5CCCCC5)CC4)CC3)sc2c1 [MMV019780] | 36.03
Fc1ccc2[nH]c3c(NCCCN4CCOCC4)ncnc3c2c1 [MMV019871] | -31.05
O=C(NC1CCN(Cc2ccccc2)CC1)c1cc(C(=O)NC2CCN(Cc3ccccc3)CC2)cc(C(=O)NC2CCN(Cc3ccccc3)CC2)c1 [MMV019881] | 9.54
Cl.Clc1cc(Br)ccc1-c1ccc(CNCC2CCNCC2)o1 [MMV019918] | -10.89
O=C(NCCCN1CCC(N2CCCCC2)CC1)C1=Cc2cc(Br)ccc2OC1 [MMV019995] | 11.48
Cc1cc(N(C)C)nc(Nc2ccc(NC(=O)Nc3ccccc3)cc2)n1 [MMV020243] | 0.64
O=C(NC1CCN(Cc2ccccc2)CC1)c1cc(-c2ccncc2)nc2ccc(Cl)cc12 [MMV020275] | -18.74
COc1ccc(-c2cn3c(C(=O)Nc4ccccc4Cl)c(-c4ccccc4)c4c3n2CCCC4)cc1 [MMV020403] | 8.35
CCn1c(CN2CCN(Cc3ccccc3)CC2)nc2cc(NC(=O)c3cccs3)ccc21 [MMV020439] | -13.64
O=C(NC1CCN(Cc2ccccc2)CC1)c1cc(-c2cccnc2)nc2ccc(Cl)cc12 [MMV020490] | -15.64
CC1CN(C(=O)c2sc3ccccc3c2Cl)CC(C)O1 (centres unmarked) [MMV020492] | -44.30
CNCCCNc1ccnc2cc(Cl)ccc12 [MMV020500] | -31.62
CN(C)CCCNCc1ccc(-c2ccc(F)c(Cl)c2)o1.Cl [MMV020505] | -8.77
CCN1CCN(Cc2ccc(NC(=O)c3cc4ccc5cccnc5c4[nH]3)cc2)CC1 [MMV020548] | -26.47
CC1CCN(Cc2ccc(NC(=O)c3cc4ccc5cccnc5c4[nH]3)cc2)CC1 [MMV020549] | -59.67
O=C(Nc1ccc(CN2CCOCC2)cc1)c1ccc(-c2cc(Cl)ccc2Cl)o1 [MMV020651] | -24.05
CCC(O)c1ccc(Br)cc1NC(=O)c1cccc(Cl)c1 (centres unmarked) [MMV020654] | -1.89
